Assay results as given in patent publication US20190119193A1, “COMPOSITION FOR REGULATING PLANT GROWTH, METHOD FOR TREATING PLANTS THEREWITH, AND ACTIVE INGREDIENT THEREOF” (Ivan Aleksandrovich Starikov, priority 2016, published 2019).

Columns and labels:
Type in all cases: in vivo
Conditions in all cases: for Germinative energy: day 3; for Germinative capacity / Number of lateral roots / Sprout height / Taproot length: day 7
[1] = system: tomato seeds (“Volgogradets” variety); assay: Laboratory tests of DMOA and DEOA for tomato seeds
Protocol: (§1) After that DMOA and DEOA were dissolved in dimethyl sulfoxide to give solutions of 10 g/L concentration, then water was added to give aqueous solutions of DMOA with concentrations of 5.5·10^−5 M, 5.5·10^−6 M, 5.5·10^−7 M, 5.5·10^−8 M, 5.5·10^−9 M and DEOA with concentrations of 4.8·10^−5 M, 4.8·10^−6 M, 4.8·10^−7 M, 4.8·10^−8 M, 4.8·10^−9 M.
(§2) The obtained aqueous solutions of DMOA and DEOA were tested in the Scientific Center of Soil-Ecological Reasearch of the Federal State-Funded Educational Institution of Higher Education “Russian State Agrarian University—Moscow Agricultural Academy named after K. A. Timiryazev” (Moscow, 2015) according to the method described by T. A. Sergeeva (Method of laboratory testing of herbicides, Plant protection, 1963, No. 2, pp. 42-43). The primary laboratory screening of DMOA and DEOA was carried out on the seeds of five different crops: sunflower of “Voronezh 638” variety, soybean of “Vilana” variety, alfalfa of “Vega” variety, cucumber of “Nezhinsky” variety and tomato of “Volgogradets” variety.
(§3) Water was used as a reference.
(§4) A single experiment was carried out in a Petri dish. A circle of filter paper was laid at the bottom of the dish and treated with 5 ml of the work solution selected for the experiment. After that 25 seeds were uniformly laid on the surface of the treated filter paper. The Petri dish was kept at a temperature of 21-23° C. with illumination by fluorescent lamps for 7 days. The fourfold replication of the experiment within a single variant was applied.
(§5) The experiment identified the number and percentage of normally germinated seeds on day 3 (germinative energy) and on day 7 (germinative capacity) after the beginning of the experiment. On day 7 the main biometric parameters were also measured: sprout height (mm), taproot length (mm) and number of lateral roots (pcs).
(§6) The results were processed with the method of variance analysis with the help of STRAZ software in order to get the LSD0.05 (least significant difference between the test results on 5% significance level).

[2] = system: cucumber seeds (“Nezhinsky” variety); assay: Laboratory tests of DMOA and DEOA for cucumber seeds
Protocol: as §1, §2, §3, §4, §5, §6

[3] = system: soybean seeds (“Vilana” variety); assay: Laboratory tests of DMOA and DEOA for soybean seeds
Protocol: as §1, §2, §3, §4, §5, §6

[4] = system: sunflower seeds (“Voronezh 638” variety); assay: Laboratory tests of DMOA and DEOA for sunflower seeds
Protocol: as §1, §2, §3, §4, §5, §6

With “Sodium salt of dimethyl ester of oxaloacetic acid [DMOA]” as the substance, how does the Germinative energy ([1]; 5.5 · 10^−5 M) read?
Its Germinative energy is 93%.

And the Germinative capacity ([1]; 5.5 · 10^−5 M)?
The Germinative capacity was 95%.

What about the “Number of lateral roots” value ([1]; 5.5 · 10^−5 M) of the same substance?
The value was 0.2 pcs.

What about the Sprout height ([1]; 5.5 · 10^−5 M) of the same substance?
Its Sprout height is 25.9 mm.

What about the Taproot length ([1]; 5.5 · 10^−5 M) of the same substance?
Its Taproot length is 83.2 ↑ mm.

And the Germinative energy ([1]; 5.5 · 10^−6 M)?
Its Germinative energy is 88%.

What about the Germinative capacity ([1]; 5.5 · 10^−6 M) of the same substance?
Its Germinative capacity is 90%.

And the “Number of lateral roots” value ([1]; 5.5 · 10^−6 M)?
Its value is 0.5 ↑ pcs.

What about the Sprout height ([1]; 5.5 · 10^−6 M) of the same substance?
Its Sprout height is 24.6 mm.

And the Taproot length ([1]; 5.5 · 10^−6 M)?
Its Taproot length is 79.8 mm.

What about the Germinative energy ([1]; 5.5 · 10^−7 M) of the same substance?
Its Germinative energy is 88%.

What about the Germinative capacity ([1]; 5.5 · 10^−7 M) of the same substance?
The Germinative capacity was 98 ↑ %.

And the “Number of lateral roots” value ([1]; 5.5 · 10^−7 M)?
The value was 0.6 ↑ pcs.

And the Sprout height ([1]; 5.5 · 10^−7 M)?
Its Sprout height is 23.7 mm.

What about the Taproot length ([1]; 5.5 · 10^−7 M) of the same substance?
The Taproot length was 74.5 mm.

And the Germinative energy ([1]; 5.5 · 10^−8 M)?
Its Germinative energy is 98 ↑ %.

What about the Germinative capacity ([1]; 5.5 · 10^−8 M) of the same substance?
The Germinative capacity was 98 ↑ %.

What about the “Number of lateral roots” value ([1]; 5.5 · 10^−8 M) of the same substance?
Its value is 0.1 pcs.

What about the Sprout height ([1]; 5.5 · 10^−8 M) of the same substance?
The Sprout height was 23.4 mm.

And the Taproot length ([1]; 5.5 · 10^−8 M)?
Its Taproot length is 83.6 ↑ mm.

What about the Germinative energy ([1]; 5.5 · 10^−9 M) of the same substance?
The Germinative energy was 88%.

And the Germinative capacity ([1]; 5.5 · 10^−9 M)?
Its Germinative capacity is 90%.

What about the “Number of lateral roots” value ([1]; 5.5 · 10^−9 M) of the same substance?
Its value is 0.7 ↑ pcs.

What about the Sprout height ([1]; 5.5 · 10^−9 M) of the same substance?
The Sprout height was 24.4 mm.

And the Taproot length ([1]; 5.5 · 10^−9 M)?
Its Taproot length is 86.9 ↑↑ mm.

What about the Germinative energy ([2]; 5.5 · 10^−5 M) of the same substance?
The Germinative energy was 86%.

And the Germinative capacity ([2]; 5.5 · 10^−5 M)?
Its Germinative capacity is 82%.

What about the “Number of lateral roots” value ([2]; 5.5 · 10^−5 M) of the same substance?
Its value is 11.9 pcs.

What about the Sprout height ([2]; 5.5 · 10^−5 M) of the same substance?
Its Sprout height is 19.0 mm.

And the Taproot length ([2]; 5.5 · 10^−5 M)?
Its Taproot length is 74.2 mm.

And the Germinative energy ([2]; 5.5 · 10^−6 M)?
The Germinative energy was 88%.

And the Germinative capacity ([2]; 5.5 · 10^−6 M)?
The Germinative capacity was 91%.

And the “Number of lateral roots” value ([2]; 5.5 · 10^−6 M)?
The value was 12.3 pcs.

And the Sprout height ([2]; 5.5 · 10^−6 M)?
The Sprout height was 15.9 mm.

What about the Taproot length ([2]; 5.5 · 10^−6 M) of the same substance?
Its Taproot length is 75.6 mm.

And the Germinative energy ([2]; 5.5 · 10^−7 M)?
The Germinative energy was 85%.

What about the Germinative capacity ([2]; 5.5 · 10^−7 M) of the same substance?
Its Germinative capacity is 94%.

And the “Number of lateral roots” value ([2]; 5.5 · 10^−7 M)?
The value was 13.7 pcs.

And the Sprout height ([2]; 5.5 · 10^−7 M)?
The Sprout height was 17.7 mm.

And the Taproot length ([2]; 5.5 · 10^−7 M)?
Its Taproot length is 78.1 mm.

And the Germinative energy ([2]; 5.5 · 10^−8 M)?
The Germinative energy was 86%.

And the Germinative capacity ([2]; 5.5 · 10^−8 M)?
Its Germinative capacity is 78%.

What about the “Number of lateral roots” value ([2]; 5.5 · 10^−8 M) of the same substance?
Its value is 13.5 pcs.

What about the Sprout height ([2]; 5.5 · 10^−8 M) of the same substance?
The Sprout height was 17.1 mm.

And the Taproot length ([2]; 5.5 · 10^−8 M)?
Its Taproot length is 74.8 mm.

What about the Germinative energy ([2]; 5.5 · 10^−9 M) of the same substance?
Its Germinative energy is 82%.

And the Germinative capacity ([2]; 5.5 · 10^−9 M)?
The Germinative capacity was 95%.

What about the “Number of lateral roots” value ([2]; 5.5 · 10^−9 M) of the same substance?
Its value is 12.9 pcs.

What about the Sprout height ([2]; 5.5 · 10^−9 M) of the same substance?
Its Sprout height is 18.2 mm.

And the Taproot length ([2]; 5.5 · 10^−9 M)?
Its Taproot length is 82.5 mm.

What about the Germinative energy ([3]; 5.5 · 10^−5 M) of the same substance?
The Germinative energy was 78%.

What about the Germinative capacity ([3]; 5.5 · 10^−5 M) of the same substance?
The Germinative capacity was 89%.

What about the “Number of lateral roots” value ([3]; 5.5 · 10^−5 M) of the same substance?
The value was 0.2 pcs.

What about the Sprout height ([3]; 5.5 · 10^−5 M) of the same substance?
The Sprout height was 16.0 mm.

And the Taproot length ([3]; 5.5 · 10^−5 M)?
The Taproot length was 35.5 mm.

What about the Germinative energy ([3]; 5.5 · 10^−6 M) of the same substance?
The Germinative energy was 82%.

What about the Germinative capacity ([3]; 5.5 · 10^−6 M) of the same substance?
The Germinative capacity was 97%.

What about the “Number of lateral roots” value ([3]; 5.5 · 10^−6 M) of the same substance?
Its value is 0.0 pcs.

What about the Sprout height ([3]; 5.5 · 10^−6 M) of the same substance?
The Sprout height was 19.0 ↑ mm.

And the Taproot length ([3]; 5.5 · 10^−6 M)?
Its Taproot length is 37.6 mm.

What about the Germinative energy ([3]; 5.5 · 10^−7 M) of the same substance?
Its Germinative energy is 65%.

What about the Germinative capacity ([3]; 5.5 · 10^−7 M) of the same substance?
The Germinative capacity was 90%.

And the “Number of lateral roots” value ([3]; 5.5 · 10^−7 M)?
The value was 0.0 pcs.

What about the Sprout height ([3]; 5.5 · 10^−7 M) of the same substance?
The Sprout height was 19.0 ↑ mm.

What about the Taproot length ([3]; 5.5 · 10^−7 M) of the same substance?
Its Taproot length is 39.5 mm.

And the Germinative energy ([3]; 5.5 · 10^−8 M)?
Its Germinative energy is 77%.

And the Germinative capacity ([3]; 5.5 · 10^−8 M)?
The Germinative capacity was 87%.

What about the “Number of lateral roots” value ([3]; 5.5 · 10^−8 M) of the same substance?
The value was 0.0 pcs.

And the Sprout height ([3]; 5.5 · 10^−8 M)?
Its Sprout height is 19.5 ↑↑ mm.

And the Taproot length ([3]; 5.5 · 10^−8 M)?
Its Taproot length is 38.4 mm.

And the Germinative energy ([3]; 5.5 · 10^−9 M)?
Its Germinative energy is 72%.

What about the Germinative capacity ([3]; 5.5 · 10^−9 M) of the same substance?
Its Germinative capacity is 83%.

And the “Number of lateral roots” value ([3]; 5.5 · 10^−9 M)?
The value was 0.0 pcs.

What about the Sprout height ([3]; 5.5 · 10^−9 M) of the same substance?
The Sprout height was 17.8 ↑ mm.

And the Taproot length ([3]; 5.5 · 10^−9 M)?
The Taproot length was 37.0 mm.

And the Germinative energy ([4]; 5.5 · 10^−5 M)?
The Germinative energy was 80%.

And the Germinative capacity ([4]; 5.5 · 10^−5 M)?
Its Germinative capacity is 90%.

And the “Number of lateral roots” value ([4]; 5.5 · 10^−5 M)?
The value was 9.7 pcs.

And the Sprout height ([4]; 5.5 · 10^−5 M)?
The Sprout height was 23.8 mm.

What about the Taproot length ([4]; 5.5 · 10^−5 M) of the same substance?
The Taproot length was 35.2 mm.

What about the Germinative energy ([4]; 5.5 · 10^−6 M) of the same substance?
Its Germinative energy is 83%.

And the Germinative capacity ([4]; 5.5 · 10^−6 M)?
Its Germinative capacity is 93%.

What about the “Number of lateral roots” value ([4]; 5.5 · 10^−6 M) of the same substance?
Its value is 8.5 pcs.

And the Sprout height ([4]; 5.5 · 10^−6 M)?
The Sprout height was 23.0 mm.

What about the Taproot length ([4]; 5.5 · 10^−6 M) of the same substance?
Its Taproot length is 46.4 ↑ mm.

And the Germinative energy ([4]; 5.5 · 10^−7 M)?
Its Germinative energy is 90 ↑ %.

What about the Germinative capacity ([4]; 5.5 · 10^−7 M) of the same substance?
The Germinative capacity was 93%.

What about the “Number of lateral roots” value ([4]; 5.5 · 10^−7 M) of the same substance?
Its value is 8.2 pcs.

And the Sprout height ([4]; 5.5 · 10^−7 M)?
Its Sprout height is 26.9 ↑ mm.

And the Taproot length ([4]; 5.5 · 10^−7 M)?
Its Taproot length is 29.8 ↓ mm.

And the Germinative energy ([4]; 5.5 · 10^−8 M)?
The Germinative energy was 93 ↑ %.

What about the Germinative capacity ([4]; 5.5 · 10^−8 M) of the same substance?
The Germinative capacity was 91%.

What about the “Number of lateral roots” value ([4]; 5.5 · 10^−8 M) of the same substance?
The value was 7.8 pcs.

What about the Sprout height ([4]; 5.5 · 10^−8 M) of the same substance?
The Sprout height was 28.8 ↑↑ mm.

What about the Taproot length ([4]; 5.5 · 10^−8 M) of the same substance?
The Taproot length was 38.1 mm.

And the Germinative energy ([4]; 5.5 · 10^−9 M)?
The Germinative energy was 87%.

And the Germinative capacity ([4]; 5.5 · 10^−9 M)?
The Germinative capacity was 93%.

What about the “Number of lateral roots” value ([4]; 5.5 · 10^−9 M) of the same substance?
The value was 11.6 ↑ pcs.

What about the Sprout height ([4]; 5.5 · 10^−9 M) of the same substance?
The Sprout height was 27.8 mm.

And the Taproot length ([4]; 5.5 · 10^−9 M)?
The Taproot length was 51.9 ↑ mm.
